Patent US7390523B2, “Method of forming a diffusion barrier layer for implantable devices” (Advanced Cardiovascular Systems Inc., priority 2000, dated 2008)
Several values for one entry are separate records, joined by “and”; a condition that tells them apart may be missing. Equal entries are not always repeated. One block for each molecule: values may come before it. *1 amine or outer side, *2 acyl side, *3 side chain or, on linkers, in order; H or OH if unused. Where a SMILES comes first, the peptide text is derived from it. Bridges are numbered along the chain shown (N, C = ends). Roman numbers before positions name the chains, in order. [ ]: non-standard residue; d: D form. Actinocin(9to1) = Cc1c2oc3c(C)ccc(C(=O)[*:1])c3nc-2c(C(=O)[*:2])c(N)c1=O; NMeV = CN[C@H](C(=O)O)C(C)C; Sar = CNCC(=O)O

Assays:
[1] = tested on: coronary arteries of a porcine stent injury model; assay: Reduction in restenosis in the porcine coronary artery stent injury model; type: in vivo, Domestic swine; conditions: 28-day endpoint; for Percent Diameter Stenosis, angiographic data (QCA): microporous balloon catheter delivery before stenting
Description: Porcine coronary models were used to assess the degree of the inhibition of neointimal formation in the coronary arteries of a porcine stent injury model by Actinomycin D, delivered with a microporous balloon catheter (1×10^6 pores/mm^2 with sizes ranging from 0.2-0.8 micron).
The preclinical animal testing was performed in accordance with the NIH Guide for Care and Use of Laboratory Animals. Domestic swine were utilized to evaluate effect of the drug on the inhibition of the neointimal formation. Each testing procedure, excluding the angiographic analysis at the follow-up endpoints, was conducted using sterile techniques. During the study procedure, the activated clotting time (ACT) was monitored regularly to ensure appropriate anticoagulation. Base line blood samples were collected for each animal before initiation of the procedure. Quantitative coronary angiographic analysis (QCA) and intravascular ultrasound (IVUS) analysis was used for vessel size assessment.
The vessels at the sites of the delivery were denuded by inflation of the PTCA balloons to 1:1 balloon to artery ratio and moving the balloons back and forth 5 times. The drug was delivered to the denuded sites at 3.5 atm (3.61 Kg/sq cm) for 2 minutes using the microporous balloon catheters before stent deployment. The average volume of delivery was about 3.3+/−1.2 ml. Following drug delivery, stents were deployed at the delivery site such that final stent to artery ratio was 1.1:1.
QCA and IVUS analyses were used for stent deployment guidance. Pre-stenting IVUS measurements of the lumen size at the targeted vessel sites were performed for determination of the balloon (size) inflation pressure. Quantitative analysis of the stented coronary arteries to compare pre-stenting, post-stenting, follow-up minimal luminal diameters, stent recoil, and balloon/stent to artery ratio were performed. Following stent implantation and final angiogram, all devices were withdrawn and the wounds closed; the animals were allowed to recover from anesthesia as managed by the attending veterinarian or animal care professionals at the research center.
Upon return to the research laboratory at the 28-day endpoint, angiographic assessments were performed. Coronary artery blood flow was assessed and the stented vessels were evaluated to determine minimal lumen diameter. The animals were euthanized following this procedure at the endpoint. Following euthanasia, the hearts were pressure perfusion fixed with formalin and prepared for histological analysis, encompassing light microscopy, and morphometry. Morphometric analysis of the stented arteries included assessment of the position of the stent struts and determination of vessel/lumen areas, percent (%) stenosis, injury scores, intimal and medial areas and intima/media ratios. Percent stenosis is quantitated by the following equation: 100(IEL area−lumen area)/IEL area
where IEL is the internal elastic lamia.
The control group of animals received delivery of water instead of the drug. The test group of animals received actinomycin D in two different concentration of 10^−5M and 10^−4M. […] FIGS. 5A and 5B illustrate sample pictures of the histology slides of the coronary vessels from the control and the Dose 1 group, respectively.

[2] = 24 hour elution of vinblastine from EVOH coated stents in phosphated saline solution, HPLC analysis; type: physicochemical; conditions: for ug Release: Sterilized (electron beam) stent, 5 ml phosphated saline pH 7.4, room temperature; for Total uG Released / uG Release per Hour: Sterilized stent
Description: MULTI-LINK® stents were cleaned by placement in an ultrasonic bath of isopropyl alcohol solution for 10 minutes. The stents were dried and plasma cleaned in a plasma chamber. An EVOH solution was made with 1 gram of EVOH and 7 grams of DMSO, making an EVOH:DMSO ratio of 1:7. Vinblastine was added to the 1:7 EVOH:DMSO solution. Vinblastine constituted 2.5% by weight of the total weight of the solution. The solution was vortexed and placed in a tube. The cleaned MULTI-LINK® stents were attached to mandrel wires and dipped into the solution. The coated stents were passed over a hot plate, for about 3-5 seconds, with a temperature setting of about 60° C. The coated stents were cured for 6 hours in an air box then placed in a vacuum oven at 60° C. for 24 hours. The above process was repeated twice, having a total of three layers. The average weight of the coating was 0.00005 gram, with an estimated vinblastine concentration of 12 microgram per stent. Some of the stents were sterilized by electron beam radiation. The sterilized and unsterilized vinblastine coated stents were tested for a 24 hour elution period by placing one sterilized and one unsterilized stent in 5 ml of phosphated saline solution (pH 7.4) at room temperature with rotational motion. The amount of vinblastine eluted was evaluated by High Performance Liquid Chromatography (HPLC) analysis. The results of this test are given below in Tables 4A and 4B and plotted in FIG. 3.

Structure (SMILES): Cc1c2oc3c(C)ccc(C(=O)N[C@@H]4C(=O)N[C@H](C(C)C)C(=O)N5CCC[C@H]5C(=O)N(C)CC(=O)N(C)[C@@H](C(C)C)C(=O)O[C@@H]4C)c3nc-2c(C(=O)N[C@@H]2C(=O)N[C@H](C(C)C)C(=O)N3CCC[C@H]3C(=O)N(C)CC(=O)N(C)[C@@H](C(C)C)C(=O)O[C@@H]2C)c(N)c1=O [actinomycin D] (I: T[dV]P[Sar][NMeV] / II: T[dV]P[Sar][NMeV]; ester I:1-I:C, II:1-II:C; linker I:N-II:N via Actinocin(9to1))
Percent Stenosis (IEL area-lumen area)/IEL area, histomorphometric data ([1]; DOSE 1 1E−05 M, n = 30): 51.8%
Residual Lumen (Lumen area)/IEL area, histomorphometric data ([1]; DOSE 1 1E−05 M, n = 30): 0.49
Percent Diameter Stenosis, angiographic data (QCA) ([1]; DOSE 1 1E−05 M, n = 10): 36.8%
Percent Stenosis (IEL area-lumen area)/IEL area, histomorphometric data ([1]; DOSE 2 1E−04 M, n = 21): 54.1%
Residual Lumen (Lumen area)/IEL area, histomorphometric data ([1]; DOSE 2 1E−04 M, n = 21): 0.46
Percent Diameter Stenosis, angiographic data (QCA) ([1]; DOSE 2 1E−04 M, n = 7): 32.3+/−11.7% and 32.3%

ug Release ([2]; 0 Hours): 0 µg
ug Release ([2]; 0.5 Hours): 2.14 µg
ug Release ([2]; 3 Hours): 1.7 µg
ug Release ([2]; 4 Hours): 0.28 µg
ug Release ([2]; 6 Hours): 0.26 µg
ug Release ([2]; 24 Hours): 2.05 µg
Total uG Released ([2]; 0 Hours): 0 uG
uG Release per Hour ([2]; 0 Hours): 0 uG per Hour
Total uG Released ([2]; 0.5 Hours): 2.14 uG
uG Release per Hour ([2]; 0.5 Hours): 4.28 uG per Hour
Total uG Released ([2]; 3 Hours): 3.84 uG
uG Release per Hour ([2]; 3 Hours): 0.68 uG per Hour
Total uG Released ([2]; 4 Hours): 4.12 uG
uG Release per Hour ([2]; 4 Hours): 0.28 uG per Hour
Total uG Released ([2]; 6 Hours): 4.38 uG
uG Release per Hour ([2]; 6 Hours): 0.13 uG per Hour
Total uG Released ([2]; 24 Hours): 6.43 uG
uG Release per Hour ([2]; 24 Hours): 0.11 uG per Hour
effect of electron beam radiation procedure on the release of vinblastine from EVOH ([2]; sterilized vs unsterilized coated stents, 24 hour elution): does not interfere
Structure (SMILES): CC[C@]1(O)C[C@@H]2CN(CCc3c([nH]c4ccccc34)[C@@](C(=O)OC)(c3cc4c(cc3OC)N(C)[C@H]3[C@@](O)(C(=O)OC)[C@H](OC(C)=O)[C@]5(CC)C=CCN6CC[C@]43[C@@H]65)C2)C1 [Vinblastine]
